What was measured:
[1] = tested on: Torulopsis sp. Strain A1 (NRRL Y-11,419); test: Oxidation of sec-alcohols to ketones by cell suspensions of yeasts; format: cell-based
Pichia sp. NRRL-Y-11328 = test: as above; format: cell-based
[2] = tested on: cell-free soluble extract of Methylococcus capsulatus CRL M1 (NRRL B-11,219); test: Oxidation of secondary alcohols by cell-free soluble extract (NAD added); format: biochemical; conditions: soluble crude extract, grown on methanol
Method: To prepare the cell-free secondary alcohol dehydrogenase (SADH) system, the washed cells were disrupted with a Wave Energy Ultrasonic Oscillator, Model W201 (Wave Energy System, Inc., Newtown, Pa.) and centrifuged at 20,000× g. for 30 minutes. […] The enzyme activity was measured with a fluorescence spectrophotometer (Perkin Elmer, Model MPF 44A) by following the formation of reduced NAD (EX 340 nm, Em 460 nm). The formation of reduced NAD was also followed with an absorption spectrophotometer at 340 nm. The assay system (3 ml.) contained: potassium phosphate buffer pH 7.0; 150 μmol.; NAD 1 μmol.; a given amount of enzyme preparation; and secondary alcohol 10 μmol. The reaction was started by the addition of substrate. One unit of enzyme activity represents the reduction of one μmole NAD per minute. Protein concentrations were determined by the Lowry method (J. Biol. Chem., 193: 255-275 (1951)).
The experimental procedure for the tests reported in Table VIII were as follows: 1 mg protein of crude extract was added into a 0.5 ml. 0.05 M phosphate buffer (pH 7.0) in a 10-ml. vial. […] The reaction mixture was incubated at 30° C. on a water bath. A 3 μl sample was removed with a syringe at 15 min. of incubation and was assayed with g.l.c. Catalytic activity was also assayed by fluorescence spectrophotometry.

[3] = tested on: cell extracts of Hansenula polymorpha ATCC 26,012; test: NAD+-dependent oxidation of secondary alcohols by cell extracts of yeasts; format: biochemical; conditions: for Conversion Rate, secondary alcohol to methylketone: cell extracts, grown on methanol, NAD+, gas chromatography
[4] = tested on: Pseudomonas sp. ATCC 21439; test: Oxidation of sec-alcohols to ketones by resting cell suspension; format: cell-based; conditions: methanol-grown, obligate
Method: (§1) The pH of the nutrient medium was adjusted to 7.0 by the addition of acid or base and 50 ml. samples of the nutrient medium were charged into a plurality of 300 ml. shaker flasks. The shaker flasks were inoculated with an inoculating loop of cells from an agar plate containing homogeneous colonies of the microorganisms on the plate (the purity of the isolates was confirmed by microscopic examination). The isolates had been maintained on methanol (0.4% V/V) agar plates or on agar plates under an atmosphere of methane and air having a 1:1 V/V gas ratio which had been transferred every two weeks. For growth on methanol, the medium was supplemented with 0.4% methanol. For growth on methane, the gaseous phase of the inoculated flasks was replaced with a gas mixture comprised on methane and air having a ratio of 1:1 on a V/V basis. The inoculated flasks were sealed air-tight and were incubated on a rotary shaker of orbital radius 2.5 cm. at 250 rpm and at 30° C. for two days until turbidity in the medium had developed. The cells were harvested by centrifugation at 10,000×g. at 4° C. for 30 minutes. The cell pellet was washed twice with a 0.05 M phosphate buffer at a pH of 7.0 (containing 0.02 M MgCl2). The washed cells were then suspended in a 0.05 M phosphate buffer at pH 7.0.
(§2) A 0.5 ml. sample of each washed cell suspension (2 mg. cells) was put into 10 ml. vials at 4° C. which were sealed with a rubber cap. The gaseous phase of the vials was removed with vacuum and then was replaced with a gas mixture of the substrate reactant (i.e., alkane or secondary alcohol) and oxygen at a 1:1 V/V ratio. (In the case of a liquid substrate, i.e., secondary alcohol, 10 μl of the substrate was put in the 10 ml. vials). […] Samples of product (1-3 μl) were withdrawn periodically with a microsyringe and the products were analyzed by gas chromatography (ionization flame detector column).
(§3) The procedure in Example 1 was repeated except that a plurality of methanol-utilizing methylotrophic microorganisms were each aerobically grown in a methanol-containing nutrient medium instead of a methane-containing medium. The nutrients in the medium were the same as indicated in Example 1 except that 0.4% V/V methanol was used as the alcohol dehydrogenase inducer and as the major carbon and energy source for growth. The cells were harvested and washed as described in Example 1. The resting microbial cells of the induced methanol-grown methanol-utilizing methylotrophic microorganisms were then contacted with C3 -C6 secondary alcohols in a buffered solution by the procedure of Example 1.

[5] = tested on: Pseudomonas MS ATCC 25262; test: as above; format: cell-based; conditions: methanol-grown, facultative
Method: as §1, §2, §3

[6] = tested on: cell extracts of Candida utilis ATCC 26,387; test: NAD+-dependent oxidation of secondary alcohols by cell extracts of yeasts; format: biochemical; conditions: for Conversion Rate, secondary alcohol to methylketone: cell extracts, grown on methanol, NAD+, gas chromatography
[7] = tested on: Methylocystis parvus OBBP (NRRL B-11,198); test: Oxidation of sec-alcohols to ketones by resting cell suspension; format: cell-based
Method: as §1, §2
(§4) The procedure in Example 1 was repeated wherein a plurality of the methane-utilizing methylotrophic microorganisms were each grown aerobically in a nutrient medium containing methane as the alcohol dehydrogenase enzyme inducer and as the major carbon and energy source for growth. The cells were harvested and washed as described in Example 1. The resting microbial cells of the induced methane-grown methane-utilizing methylotrophic microorganisms were then contacted with C3 -C6 secondary alcohols in a buffered solution by the procedure of Example 1.
(§5) In this example, the procedure in Example 1 was repeated except that a plurality of methane-utilizing methylotrophic microorganisms were each aerobically grown in a methanol-containing nutrient medium instead of a methane-containing medium. The nutrients in the medium were the same as indicated in Example 1 except that 0.4% V/V methanol was used as the alcohol dehydrogenase inducer and major source of carbon and energy for growth. Following growth, the cells were harvested and washed as described in Example 1. The resting cells of the induced methanol-grown methylotrophic microorganisms were then contacted with secondary alcohols in a buffered solution by the procedure described in Example 1.

[8] = tested on: Methylobacter capsulatus Y (NRRL B-11,201); test: as above; format: cell-based
Method: as §1, §2, §4, §5

[9] = tested on: Methylococcus capsulatus, Texas (ATCC 19069); test: as above; format: cell-based
Method: as §1, §2, §4, §5

[10] = tested on: Methylomonas methanica S1 (NRRL B-11,199); test: as above; format: cell-based
Method: as §1, §2, §4, §5

[11] = tested on: Kloeckera sp. Strain A2 (NRRL Y-11,420); test: Oxidation of sec-alcohols to ketones by cell suspensions of yeasts; format: cell-based
[12] = spectrophotometric, 2-butanol as substrate

SMILES	Conversion Rate, sec-alcohol to ketone ([1]; growth substrate Ethanol)	Conversion Rate, sec-alcohol to ketone ([1]; growth substrate Methanol)	Conversion Rate, sec-alcohol to ketone ([1]; growth substrate Methylamine)	Conversion Rate, sec-alcohol to ketone ([1]; growth substrate Methylformate)	Conversion Rate, sec-alcohol to ketone ([1]; growth substrate Propylamine)	Conversion Rate, sec-alcohol to ketone (Pichia sp. NRRL-Y-11328; growth substrate Ethanol)	Conversion Rate, sec-alcohol to ketone (Pichia sp. NRRL-Y-11328; growth substrate Methanol)	Conversion Rate, sec-alcohol to ketone (Pichia sp. NRRL-Y-11328; growth substrate Methylamine)	Conversion Rate, sec-alcohol to ketone (Pichia sp. NRRL-Y-11328; growth substrate Methylformate)	Conversion Rate, sec-alcohol to ketone (Pichia sp. NRRL-Y-11328; growth substrate Propylamine)	Oxidation Rate, sec-alcohol to methyl ketone [2] [nmole/min/mg protein]	Conversion Rate, secondary alcohol to methylketone [3] [μmoles/hr/mg Protein]	Conversion Rates, sec-alcohol to methyl ketone [4] [μmoles/hr/mg protein]	Conversion Rates, sec-alcohol to methyl ketone [5] [μmoles/hr/mg protein]	Conversion Rate, secondary alcohol to methylketone [6] [μmoles/hr/mg Protein]	Conversion Rates, sec-alcohol to methyl ketone ([7]; cells grown on methanol) [μmoles/hr/mg protein]	Conversion Rates, sec-alcohol to methyl ketone ([7]; resting cells grown on methane) [μmoles/hr/mg protein]	Conversion Rates, sec-alcohol to methyl ketone ([8]; cells grown on methanol) [μmoles/hr/mg protein]	Conversion Rates, sec-alcohol to methyl ketone ([8]; resting cells grown on methane) [μmoles/hr/mg protein]	Conversion Rates, sec-alcohol to methyl ketone ([9]; cells grown on methanol) [μmoles/hr/mg protein]	also measured
CCC(C)O (centres unmarked) [2-Butanol, 2-butanol]	4.7 μmoles/hr/mg of protein	4.9 μmoles/hr/mg of protein	4.5 μmoles/hr/mg of protein	4.9 μmoles/hr/mg of protein	3.8 μmoles/hr/mg of protein	6.2 μmoles/hr/mg of protein	6.8 μmoles/hr/mg of protein	5.1 μmoles/hr/mg of protein	6.9 μmoles/hr/mg of protein	2.1 μmoles/hr/mg of protein	2.0	5.2	4.7	3.5	4.92	1.0	1.1	1.5	0.84	0.70	specific activities [3, 12]: 85 nmoles NAD^+ reduced per min. per mg. protein; specific activities [6, 12]: 78 nmoles NAD^+ reduced per min. per mg. protein; Conversion Rates, sec-alcohol to methyl ketone ([9]; resting cells grown on methane): 0.60 μmoles/hr/mg protein; Conversion Rates, sec-alcohol to methyl ketone ([10]; cells grown on methanol): 0.40 μmoles/hr/mg protein; Conversion Rates, sec-alcohol to methyl ketone ([10]; resting cells grown on methane): 0.39 μmoles/hr/mg protein; Conversion Rate, sec-alcohol to ketone ([11]; growth substrate Ethanol): 5.7 μmoles/hr/mg of protein; Conversion Rate, sec-alcohol to ketone ([11]; growth substrate Methanol): 5.9 μmoles/hr/mg of protein; Conversion Rate, sec-alcohol to ketone ([11]; growth substrate Methylamine): 5.4 μmoles/hr/mg of protein; Conversion Rate, sec-alcohol to ketone ([11]; growth substrate Methylformate): 5.9 μmoles/hr/mg of protein; Conversion Rate, sec-alcohol to ketone ([11]; growth substrate Propylamine): 4.2 μmoles/hr/mg of protein
CC(C)O [2-Propanol, 2-propanol]	4.2 μmoles/hr/mg of protein	4.5 μmoles/hr/mg of protein	4.3 μmoles/hr/mg of protein	4.5 μmoles/hr/mg of protein	3.2 μmoles/hr/mg of protein	4.5 μmoles/hr/mg of protein	5.2 μmoles/hr/mg of protein	4.2 μmoles/hr/mg of protein	4.9 μmoles/hr/mg of protein	3.2 μmoles/hr/mg of protein	1.7	4.8	7.4	0.80	4.5	0.25	0.32	0.52	0.15	0.75	Conversion Rates, sec-alcohol to methyl ketone ([9]; resting cells grown on methane): 0.08 μmoles/hr/mg protein; Conversion Rates, sec-alcohol to methyl ketone ([10]; cells grown on methanol): 0.35 μmoles/hr/mg protein; Conversion Rates, sec-alcohol to methyl ketone ([10]; resting cells grown on methane): 0.40 μmoles/hr/mg protein; Conversion Rate, sec-alcohol to ketone ([11]; growth substrate Ethanol): 4.5 μmoles/hr/mg of protein; Conversion Rate, sec-alcohol to ketone ([11]; growth substrate Methanol): 4.8 μmoles/hr/mg of protein; Conversion Rate, sec-alcohol to ketone ([11]; growth substrate Methylamine): 4.0 μmoles/hr/mg of protein; Conversion Rate, sec-alcohol to ketone ([11]; growth substrate Methylformate): 4.9 μmoles/hr/mg of protein; Conversion Rate, sec-alcohol to ketone ([11]; growth substrate Propylamine): 4.0 μmoles/hr/mg of protein
CCCCC(C)O (centres unmarked) [2-Hexanol, 2-hexanol]	0.20 μmoles/hr/mg of protein	0.21 μmoles/hr/mg of protein	0.12 μmoles/hr/mg of protein	0.25 μmoles/hr/mg of protein	0.10 μmoles/hr/mg of protein	0.28 μmoles/hr/mg of protein	0.50 μmoles/hr/mg of protein	0.31 μmoles/hr/mg of protein	0.48 μmoles/hr/mg of protein	0.21 μmoles/hr/mg of protein	0	0.51	0.03	0.80	0.45	0.05	0.065	0.12	0.1	1.3	Conversion Rates, sec-alcohol to methyl ketone ([9]; resting cells grown on methane): 1.0 μmoles/hr/mg protein; Conversion Rates, sec-alcohol to methyl ketone ([10]; cells grown on methanol): 0.04 μmoles/hr/mg protein; Conversion Rates, sec-alcohol to methyl ketone ([10]; resting cells grown on methane): 0.01 μmoles/hr/mg protein; Conversion Rate, sec-alcohol to ketone ([11]; growth substrate Ethanol): 0.12 μmoles/hr/mg of protein; Conversion Rate, sec-alcohol to ketone ([11]; growth substrate Methanol): 0.25 μmoles/hr/mg of protein; Conversion Rate, sec-alcohol to ketone ([11]; growth substrate Methylamine): 0.10 μmoles/hr/mg of protein; Conversion Rate, sec-alcohol to ketone ([11]; growth substrate Methylformate): 0.28 μmoles/hr/mg of protein; Conversion Rate, sec-alcohol to ketone ([11]; growth substrate Propylamine): 0.11 μmoles/hr/mg of protein

Source: patent US4268630A, “Microbiological production of ketones from C3 -C6 alkanes” (priority 1979, dated 1981)
